From ChEMBL document CHEMBL3046894, “Synthesis and Herbicidal Activity of Pyrimidinyl Salicylic and Thiosalicylic Acids” (J Pestic Sci, 1996)
The source made the active and inactive calls. No cut-off for these calls is given here.

Legend:
Assay type in all cases: functional, organism-based
Echinochloa crus-galli [1] = experiment: Post-emergence herbicidal activity against Echinochloa crus-galli (barnyard grass) assessed as growth inhibition at 25 g a.i/10 a applied 11 days after germination as foliar spray
Cyperus iria [2] = experiment: Pre-emergence herbicidal activity against Cyperus iria assessed as growth inhibition at 25 g a.i/10 a
Digitaria sanguinalis [3] = experiment: Post-emergence herbicidal activity against Digitaria sanguinalis (hairy crabgrass) assessed as growth inhibition at 25 g a.i/10 a applied 11 days after germination as foliar spray
Chenopodium album [4] = experiment: Post-emergence herbicidal activity against Chenopodium album assessed as growth inhibition at 25 g a.i/10 a applied 11 days after germination as foliar spray
Amaranthus retroflexus [5] = experiment: Post-emergence herbicidal activity against Amaranthus retroflexus assessed as growth inhibition at 25 g a.i/10 a applied 11 days after germination as foliar spray
Echinochloa crus-galli [6] = experiment: Pre-emergence herbicidal activity against Echinochloa crus-galli (barnyard grass) assessed as growth inhibition at 25 g a.i/10 a
Cyperus iria [7] = experiment: Post-emergence herbicidal activity against Cyperus iria assessed as growth inhibition at 25 g a.i/10 a applied 11 days after germination as foliar spray
Chenopodium album [8] = experiment: Pre-emergence herbicidal activity against Chenopodium album assessed as growth inhibition at 25 g a.i/10 a
Amaranthus retroflexus [9] = experiment: Pre-emergence herbicidal activity against Amaranthus retroflexus assessed as growth inhibition at 25 g a.i/10 a
Digitaria sanguinalis [10] = experiment: Pre-emergence herbicidal activity against Digitaria sanguinalis (hairy crabgrass) assessed as growth inhibition at 25 g a.i/10 a
Persicaria nodosa [11] = experiment: Pre-emergence herbicidal activity against Persicaria nodosa assessed as growth inhibition at 25 g a.i/10 a
Persicaria nodosa [12] = experiment: Post-emergence herbicidal activity against Persicaria nodosa assessed as growth inhibition at 25 g a.i/10 a applied 11 days after germination as foliar spray

| Structure (SMILES) | growth inhibition (GI) (Echinochloa crus-galli [1]) | growth inhibition (GI) (Cyperus iria [2]) | growth inhibition (GI) (Digitaria sanguinalis [3]) | growth inhibition (GI) (Chenopodium album [4]) | growth inhibition (GI) (Amaranthus retroflexus [5]) | growth inhibition (GI) (Echinochloa crus-galli [6]) | growth inhibition (GI) (Cyperus iria [7]) | growth inhibition (GI) (Chenopodium album [8]) | growth inhibition (GI) (Amaranthus retroflexus [9]) | growth inhibition (GI) (Digitaria sanguinalis [10]) | growth inhibition (GI) (Persicaria nodosa [11]) | growth inhibition (GI) (Persicaria nodosa [12]) |
| --- | --- | --- | --- | --- | --- | --- | --- | --- | --- | --- | --- | --- |
| COc1cc(OC)nc(Oc2cccc(C(=O)c3ccccc3)c2C(=O)O)n1 | inactive | Active | inactive | Active | Active | inactive | Active | Active | Active | inactive | inactive | Active |
| COc1cc(OC)nc(Oc2ccc(I)cc2C(=O)O)n1 | Active | inactive | inactive | inactive | inactive | inactive | Active | inactive | inactive | inactive | inactive | Active |
| COc1cc(OC)nc(Oc2cccc(OC(C)C)c2C(=O)O)n1 | Active | Active | Active | Active | Active | Active | Active | Active | Active | Active | Active | Active |
| COc1cc(OC)nc(Oc2ccc(F)cc2C(=O)O)n1 | Active | Active | inactive | Active | Active | Active | Active | Active | Active | Active | Active | Active |
| COc1cc(OC)nc(Oc2ccc(OC(C)C)cc2C(=O)O)n1 | Active | inactive | inactive | inactive | inactive | inactive | Active | inactive | inactive | inactive | inactive | Active |
| COc1cc(OC)nc(Oc2ccc(C)cc2C(=O)O)n1 | Active | Active | inactive | inactive | Active | inactive | inactive | Active | Active | inactive | inactive | Active |
| CCCOc1cccc(Oc2nc(OC)cc(OC)n2)c1C(=O)O | Active | Active | Active | Active | Active | Active | Active | Active | Active | Active | Active | Active |
| COc1cc(OC)nc(Oc2c(C)cccc2C(=O)O)n1 | inactive | Active | inactive | inactive | Active | Active | Active | Active | Active | inactive | inactive | Active |
| COc1cc(OC)nc(Oc2ccc(-n3cccc3)cc2C(=O)O)n1 | Active | inactive | Active | inactive | Active | inactive | Active | inactive | inactive | inactive | inactive | Active |
| CCCSc1cccc(Oc2nc(OC)cc(OC)n2)c1C(=O)O | inactive | inactive | inactive | inactive | Active | inactive | inactive | inactive | inactive | inactive | inactive | Active |
| COc1cc(OC)nc(Oc2ccc(Cl)cc2C(=O)O)n1 | inactive | inactive | inactive | Active | Active | inactive | Active | Active | Active | inactive | inactive | inactive |
| COc1cc(OC)nc([S+]([O-])c2cccc(Cl)c2C(=O)O)n1 (stereo not given) | Active | Active | inactive | Active | Active | inactive | Active | Active | Active | Active | inactive | Active |
| CNc1ccc(Oc2nc(OC)cc(OC)n2)c(C(=O)O)c1 | Active | Active | Active | Active | Active | inactive | Active | Active | Active | inactive | Active | Active |
| COc1cc(OC)nc(Oc2cc(N)ccc2C(=O)O)n1 | inactive | inactive | inactive | Active | Active | inactive | Active | inactive | inactive | inactive | inactive | Active |
| COc1cc(OC)nc(Cc2cccc(Cl)c2C(=O)O)n1 | Active | Active | Active | Active | Active | Active | Active | Active | Active | Active | Active | Active |
| COc1cc(OC)nc(Oc2cccc(C(C)=O)c2C(=O)O)n1 | Active | Active | Active | Active | Active | Active | Active | Active | Active | Active | Active | Active |
| CCCCOc1cccc(Oc2nc(OC)cc(OC)n2)c1C(=O)O | Active | Active | Active | Active | Active | Active | Active | Active | Active | Active | inactive | Active |
| COc1cc(OC)nc(Oc2c(Cl)cccc2C(=O)O)n1 | inactive | – | inactive | inactive | Active | – | Active | – | – | – | – | Active |
